Data: patent US12611394B2, “Use of ginkgolide a in the treatment of autism” (CENTER FOR EXCELLENCE IN MOLECULAR CELL SCIENCE, CHINESE …, priority 2019, dated 2026)

Key:
Assay type in all cases: in vivo, mouse
[1] = test system: heterozygous mutant mice carrying NR2F1 gene point mutation; experiment: Self-grooming experiment after administration of ginkgolide A; conditions: mutant (+/m) mice, gavage 2 mg/kg once a day, 7-8 weeks after birth, tested at 8 weeks; FIG. 12
Method: The experimental mice were placed in a feeding cage with the bottom covered with feed and the height was no more than 1 cm. The time of grooming behavior in mice in 10 minutes was recorded. The grooming position includes face, head, neck, ears, etc. Subsequent self-grooming experiments were conducted to detect repetitive stereotyped behaviors. […] Ginkgolide A was administered to heterozygous mutant mice. The detailed administration scheme was as follows: the administration method was gavage treatment, the concentration of ginkgolide A was 2 mg/kg, the administration time is 7-8 weeks after the birth of mutant mice, and the administration frequency was once a day.

[2] = test system: heterozygous mutant mice carrying NR2F1 gene point mutation; experiment: Elevated-plus maze experiment after administration of ginkgolide A; conditions: mutant (+/m) mice, gavage 2 mg/kg once a day, 7-8 weeks after birth, tested at 8 weeks; FIG. 13
Method: The related anxiety state of mice were investigated by using the characteristics that mice like to explore in the new environment and the contradictory behavior of fear of heights with open arms at heights. In order to increase the total number of mice entering the arm and avoid hiding in the closed arm, the animals were usually placed in an open environment for 5 minutes and then placed in the maze. Similarly, the mice were placed in a room with an elevated experimental device to adapt to the environment one hour before the start of the experiment, with the red light turned on, and the room temperature was kept at 25° C. At the beginning of the experiment, hold the mouse into the palm of the hand, place it in the middle of the cross facing the closed arm, and quickly leave this room. Then another person started recording and tracking the activity movement of the mouse in another room. In the process, the times of the experimental mouse entering the open arm and the closed arm was counted, and the time of staying in the open arm and the closed arm was counted respectively; after the whole process was recorded for 5 minutes for the experiment, the mice were gently stroked, and put back into the cage. The elevated-plus table was cleaned with 70% alcohol for the experiment of the next mouse. The elevated-plus experiment is mainly used to detect the anxiety behavior of mice. […]

[3] = test system: heterozygous mutant mice carrying NR2F1 gene point mutation; experiment: Three-box experiment (sociability and social novelty test) after administration of ginkgolide A; conditions: mutant (+/m) mice, gavage 2 mg/kg once a day, 7-8 weeks after birth, tested at 8 weeks; FIG. 11
Method: a. Experimenter A entered the behavior room one hour before the experiment, took out a cage (four) of the experimental mice placed in the next room and placed them in the behavior room 1 hour. Meanwhile, the two mice needed in the experiment (note that the mice used here and the experimental mice cannot be in the same nest, and the sex should be the same) were placed in the behavior room 1 hour. Turn on the light to adapt it to the environment; b. Experimenter A started to clean the three boxes of equipment used in the experiment about half an hour before the experiment, sprayed the 30% alcohol on all parts of the three boxes, wiped gently with a white cloth, and then wiped dry with a new clean white cloth. Then two cages and two objects were washed. And the cloth used to block personnel and the experimental area was put up. c. At the same time, experimenter B began to debug the computer operating software: open the three-box experimental program and confirm whether the positions of the three boxes coincide with the position divided by the software. If not, please assist experimenter A in adjusting. […] After everything was ready, in the first round of the experiment, experimenter A put identical objects in areas 2 and 3, such as bottle caps. […] 5 min later, the experiment was ready to start. […] The experiment lasted 10 min, and the software recorded the time and distance of mice in each area. […]

C[C@@H]1C(=O)O[C@H]2C[C@@]34[C@H]5C[C@@H](C(C)(C)C)[C@]36[C@@H](OC(=O)[C@@H]6O)O[C@@]4(C(=O)O5)[C@]21O [ginkgolide A]
self-grooming time [1]: significantly reduced
time to explore the open arm [2]: increased significantly
time of interaction with similar mice (sociability) [3]: significantly increased
time of interaction with unfamiliar mice (social novelty) [3]: significantly increased
